{"source": "patent US20020049249A1", "about": "“PPAR receptor activator compounds for treating cutaneous disorders/afflictions” (priority 1999, published 2002)", "type_in_all_cases": "cell-based", "key": {"PPAR-γ": {"target": "T1, PPAR-γ (Homo sapiens, UniProt P37231)", "T1 construct": "expressed in transfected cells; host or cells: HeLa cells", "T1 sequence (P37231 1-505)": "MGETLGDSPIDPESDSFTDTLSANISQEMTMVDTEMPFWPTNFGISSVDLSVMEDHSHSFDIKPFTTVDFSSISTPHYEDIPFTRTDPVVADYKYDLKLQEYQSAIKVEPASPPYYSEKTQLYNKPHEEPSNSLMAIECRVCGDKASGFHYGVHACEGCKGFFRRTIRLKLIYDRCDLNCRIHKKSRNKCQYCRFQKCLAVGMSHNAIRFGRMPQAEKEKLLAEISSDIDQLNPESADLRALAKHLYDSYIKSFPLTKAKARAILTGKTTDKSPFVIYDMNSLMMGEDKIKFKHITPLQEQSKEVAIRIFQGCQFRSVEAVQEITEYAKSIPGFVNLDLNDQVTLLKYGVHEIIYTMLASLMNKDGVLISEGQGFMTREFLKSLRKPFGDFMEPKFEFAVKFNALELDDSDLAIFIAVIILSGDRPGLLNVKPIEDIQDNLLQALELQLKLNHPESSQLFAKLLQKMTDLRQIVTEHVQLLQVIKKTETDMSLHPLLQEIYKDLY", "assay": "PPAR-γ transactivation test (luciferase reporter, cotransfected HeLa cells)", "parameters": "concentration or dose not given beside the values", "settings": "HeLa cells cotransfected with receptor vector and PPRE-luciferase reporter, 24 hours; relative to Reference 2", "experimental": "(§1) This activity is determined employing an enzyme (luciferase) which is a reporter of the activation due to the compound via one of the PPAR receptors.\n(§2) The biological tests carried out correspond to those described above. […] Thus, the activating power via PPAR-α, PPAR-γ or PPAR-δ of molecules can be evaluated with a transactivation test in which HeLa cells were cotransfected with an expression vector encoding these receptors and a reporter plasmid comprising a PPRE response element cloned upstream of a portion of a promoter of the SV40 virus and of the luciferase gene. The cotransfected cells were treated for 24 hours with the molecules to be tested and the activity of the luciferase was determined by luminescence."}, "PPAR-β": {"target": "T2, PPAR-β (Homo sapiens, UniProt Q03181)", "T2 construct": "expressed in transfected cells; host or cells: HeLa cells", "T2 sequence (Q03181 1-441)": "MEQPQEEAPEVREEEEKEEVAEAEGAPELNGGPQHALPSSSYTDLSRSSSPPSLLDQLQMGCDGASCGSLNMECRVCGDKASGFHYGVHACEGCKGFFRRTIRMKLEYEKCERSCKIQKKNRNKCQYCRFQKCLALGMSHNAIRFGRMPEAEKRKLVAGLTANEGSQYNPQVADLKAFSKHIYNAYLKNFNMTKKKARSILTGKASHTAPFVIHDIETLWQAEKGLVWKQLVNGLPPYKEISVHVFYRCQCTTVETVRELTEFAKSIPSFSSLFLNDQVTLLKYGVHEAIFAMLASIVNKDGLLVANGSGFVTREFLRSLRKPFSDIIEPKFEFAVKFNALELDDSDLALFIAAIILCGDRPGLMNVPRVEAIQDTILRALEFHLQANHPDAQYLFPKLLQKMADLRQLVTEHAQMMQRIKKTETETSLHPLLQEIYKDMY", "assay": "PPAR-β transactivation test (luciferase reporter, cotransfected HeLa cells)", "parameters": "% of activation, β: concentration or dose not given beside the values", "settings": "24 hours; for % of activation, β: HeLa cells cotransfected with receptor vector and PPRE-luciferase reporter, relative to Reference 2; for AC50: HeLa cells cotransfected, concentration giving 50% of the activity of the reference molecule", "experimental": "as §1, §2"}, "PPAR-α": {"target": "T3, PPAR-α (Homo sapiens, UniProt Q07869)", "T3 construct": "expressed in transfected cells; host or cells: HeLa cells", "T3 sequence (Q07869 1-468)": "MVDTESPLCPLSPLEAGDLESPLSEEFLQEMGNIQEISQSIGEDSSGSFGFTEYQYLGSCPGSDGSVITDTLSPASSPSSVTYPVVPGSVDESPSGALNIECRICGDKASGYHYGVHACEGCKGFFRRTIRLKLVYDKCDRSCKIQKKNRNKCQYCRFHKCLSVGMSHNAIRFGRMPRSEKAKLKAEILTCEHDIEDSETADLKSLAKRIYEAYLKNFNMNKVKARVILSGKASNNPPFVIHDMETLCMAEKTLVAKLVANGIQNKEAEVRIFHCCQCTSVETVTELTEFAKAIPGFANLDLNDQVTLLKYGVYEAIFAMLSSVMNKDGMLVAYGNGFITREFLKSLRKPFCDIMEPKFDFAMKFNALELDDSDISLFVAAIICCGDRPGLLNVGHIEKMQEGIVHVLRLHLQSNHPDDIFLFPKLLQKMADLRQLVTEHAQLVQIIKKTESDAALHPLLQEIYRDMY", "assay": "PPAR-α transactivation test (luciferase reporter, cotransfected HeLa cells)", "parameters": "concentration or dose not given beside the values", "settings": "HeLa cells cotransfected with receptor vector and PPRE-luciferase reporter, 24 hours; relative to Reference 1", "experimental": "as §1, §2"}}}
{"smiles": "CC1=NC(=Cc2ccc(Oc3ccc4c(c3)C(C)(C)CCC4(C)C)cc2)C(=O)O1", "note": "[Comparative Example 1, 2-methyl-4-[4-(5,5,8,8,-tetramethyl-5,6,7,8-tetrahydronaphth-2-yloxy)benzylidine]-4H-oxazol-5-one, reference compound]", "values": [{"measurement": "% of activation, γ", "setting": "PPAR-γ", "result": 0, "unit": "%"}, {"measurement": "% of activation, β", "setting": "PPAR-β", "result": 7, "unit": "%"}, {"measurement": "% of activation, α", "setting": "PPAR-α", "result": 5, "unit": "%"}]}
{"smiles": "CC(=O)NC(=Cc1ccc(Oc2ccc3c(c2)C(C)(C)CCC3(C)C)cc1)C(=O)O", "note": "[Comparative Example 2, 2-acetylamino-3-[4-(5,5,8,8-tetramethyl-5,6,7,8-tetrahydronaphth-2-yloxy)phenyl]-acrylic acid, reference compound]", "values": [{"measurement": "% of activation, γ", "setting": "PPAR-γ", "result": 4, "unit": "%"}, {"measurement": "% of activation, β", "setting": "PPAR-β", "result": 0, "unit": "%"}, {"measurement": "% of activation, α", "setting": "PPAR-α", "result": 7, "unit": "%"}]}
{"smiles": "CC1(C)CCC(C)(C)c2cc(Oc3ccc4cc(C(=O)O)ccc4c3)ccc21", "note": "[Compound 1, 6-(5,5,8,8-tetramethyl-5,6,7,8-tetrahydronaphth-2-yloxy)naphthalene-2-carboxylic acid]", "values": [{"measurement": "% of activation, γ", "setting": "PPAR-γ", "result": 23, "unit": "%"}, {"measurement": "% of activation, β", "setting": "PPAR-β", "result": 152, "unit": "%"}, {"measurement": "AC50", "setting": "PPAR-β", "result": 700, "unit": "nM"}, {"measurement": "% of activation, α", "setting": "PPAR-α", "result": 18, "unit": "%"}]}
{"smiles": "CC1(C)CCC(C)(C)c2cc(Oc3ccc(C=CC(=O)O)cc3)ccc21", "note": "[Compound 2, 3-[4-(5,5,8,8-tetramethyl-5,6,7,8-tetrahydronaphth-2-yloxy)phenyl]acrylic acid]", "values": [{"measurement": "% of activation, γ", "setting": "PPAR-γ", "result": 18, "unit": "%"}, {"measurement": "% of activation, β", "setting": "PPAR-β", "result": 204, "unit": "%"}, {"measurement": "AC50", "setting": "PPAR-β", "result": 900, "unit": "nM"}, {"measurement": "% of activation, α", "setting": "PPAR-α", "result": 12, "unit": "%"}]}
{"smiles": "CC1(C)CCC(C)(C)c2cc(Sc3ccc4cc(C(=O)O)ccc4c3)ccc21", "note": "[Compound 3, 6-(5,5,8,8-tetramethyl-5,6,7,8-tetrahydronaphth-2-ylsulfanyl)naphthalene-2-carboxylic acid]", "values": [{"measurement": "% of activation, γ", "setting": "PPAR-γ", "result": 40, "unit": "%"}, {"measurement": "% of activation, β", "setting": "PPAR-β", "result": 172, "unit": "%"}, {"measurement": "AC50", "setting": "PPAR-β", "result": 200, "unit": "nM"}, {"measurement": "% of activation, α", "setting": "PPAR-α", "result": 24, "unit": "%"}]}
{"smiles": "CC(=CC(=O)O)c1ccc(Oc2ccc3c(c2)C(C)(C)CCC3(C)C)cc1", "note": "[Compound 4, 3-[4-(5,5,8,8-tetramethyl-5,6,7,8-tetrahydronaphth-2-yloxy)phenyl]but-2-enoic acid]", "values": [{"measurement": "% of activation, γ", "setting": "PPAR-γ", "result": 0, "unit": "%"}, {"measurement": "% of activation, β", "setting": "PPAR-β", "result": 56, "unit": "%"}, {"measurement": "% of activation, α", "setting": "PPAR-α", "result": 12, "unit": "%"}]}
{"smiles": "CC1(C)CCC(C)(C)c2cc(Nc3ccc4cc(C(=O)O)ccc4c3)ccc21", "note": "[Compound 5, 6-(5,5,8,8-tetramethyl-5,6,7,8-tetrahydronaphth-2-ylamino)naphthalene-2-carboxylic acid]", "values": [{"measurement": "% of activation, γ", "setting": "PPAR-γ", "result": 69, "unit": "%"}, {"measurement": "% of activation, β", "setting": "PPAR-β", "result": 328, "unit": "%"}, {"measurement": "AC50", "setting": "PPAR-β", "result": 7000, "unit": "nM"}, {"measurement": "% of activation, α", "setting": "PPAR-α", "result": 25, "unit": "%"}]}
{"smiles": "Cc1cccc(Nc2cc(Cl)nc(SCC(=O)O)n2)c1C", "note": "[Reference 1, [4-chloro-6-(2,3-dimethyl-phenylamino)pyrimidin-2-ylsulfanyl]acetic acid, reference compound]", "values": [{"measurement": "% of activation, α", "setting": "PPAR-α", "result": 100, "unit": "%"}]}
